Biological target: T1, adenine deaminase (Ade) (Clostridioides difficile, UniProt A0A9R0BKJ2)
T1 construct: codon-optimized ade in pWL613a (pET28b derivative), N-terminal His-tag, expressed in E. coli BL21(DE3), Ni-NTA and Superdex 200
Assay: surface plasmon resonance, His-captured protein
Type: binding

T1 sequence (A0A9R0BKJ2 entry or part of it): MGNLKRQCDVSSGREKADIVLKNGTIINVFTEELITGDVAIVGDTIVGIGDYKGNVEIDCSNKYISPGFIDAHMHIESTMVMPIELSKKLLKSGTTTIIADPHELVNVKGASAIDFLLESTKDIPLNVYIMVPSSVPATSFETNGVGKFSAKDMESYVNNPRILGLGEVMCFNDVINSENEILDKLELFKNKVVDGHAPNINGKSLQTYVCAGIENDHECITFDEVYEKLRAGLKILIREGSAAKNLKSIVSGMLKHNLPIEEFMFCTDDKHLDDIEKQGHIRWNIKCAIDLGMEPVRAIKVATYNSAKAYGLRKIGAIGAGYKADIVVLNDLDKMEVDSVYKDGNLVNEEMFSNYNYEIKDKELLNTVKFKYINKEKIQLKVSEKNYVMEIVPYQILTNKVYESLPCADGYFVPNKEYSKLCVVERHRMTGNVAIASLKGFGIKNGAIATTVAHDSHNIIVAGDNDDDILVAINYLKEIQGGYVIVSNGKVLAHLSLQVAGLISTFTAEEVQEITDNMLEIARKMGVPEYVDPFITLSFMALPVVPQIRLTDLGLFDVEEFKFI

SMILES	Kd [µM]
CC1(C)[C@@H](O)CC[C@]2(C)[C@H]3C(=O)C=C4[C@@H]5C[C@@](C)(C(=O)O)CC[C@]5(C)CC[C@@]4(C)[C@]3(C)CC[C@@H]12 [enoxolone]	34.6 ± 13.4
Clc1ncnc2[nH]cnc12 [6-chloropurine]	264 ± 42.9
